Test results published in patent publication US20240164385A1, “A SYNERGISTIC PLANT GROWTH STIMULANT COMPOSITION COMPRISING POTASSIUM MONO/DIFORMATE AND METAL ION COMPOUNDS TO ENHANCED METABOLIC ACTIVITIES IN PLANTS” (FERTIS INDIA PVT LTD, priority 2021, published 2024).

Tests used:
Type in all cases: in vivo
paddy grain [1] = assay: Estimation of total protein content in paddy grain samples by Lowry method; settings: 660 nm
Method: To the above solution add 5 g of Na2co3 mix well. B. 1% NAK Tartrate (Sodium Potassium Tartrate) Preparation: • Dissolve 1 g of NAK tartrate in 100 ml of volumetric flask and then make up to mark with distilled water. C. […] Dissolve 100 mg of BSA in 100 ml of volumetric flask and then make up to mark with distilled water. Take 6 test tubes then add to the above solution each of 0.1, 0.2, 0.3, 0.4, 0.5, 0.6. Sample Procedure: • i. […] Then filter through whatman filter paper 1 we take test tubes and add 1 ml of each sample. • iii. Add 4.5 ml of reagent 1 and incubate for 10 mins. • iv. After incubation add 0.5 ml of reagent 2 and incubate for 30 mins. • v. Measure the absorbance at 660 nm and plot the standard graph. The Analysis of protein estimation in grain samples is performed by Lowry method with UV Vis Spectro photo meter at 660 nm.

paddy grain [2] = assay: Estimation of total phenol content in paddy grain samples (Folin-Ciocalteu); settings: absorbance at 765 nm
Method: Folin-Ciocalteu's Phenol Reagent Preparation: Take 5 ml of folin ciocalteu's phenol reagent in 50 ml of volumetric flask and then make up to the mark with distilled water 7.5% of Na2CO3 Preparation: Take 7.5 g of Na2CO3 in 100 ml of volumetric flask and then make up to mark with distilled water. Sample Procedure: • i. […] Keep it hot plate for extraction at 95° C. for 1 hr. • iii. After 1 hr filter through whatman filter paper 1 and then make up to 25 ml of volumetric flask with 70% methanol. • iv. […] Incubation for 5 mins. • vi. After 5 mins add 4 ml of 7.5% Na2CO3 mix well then keep it dark place incubation for 1 hr. • vii. Measure the absorbance at 765 nm. • viii. […] Check OD @765 nm.

paddy grain [3] = assay: Micronutrient absorption levels in paddy grains by ICP; settings: paddy grain samples
Method: Analysis of Micronutrients in Paddy Samples by ICP (Inductive Coupled Plasma) Equipment.
• i. 1 gm of grain powder added to 60 ml of perchloric acid and Nitric acid (9:1) digest for overnight. • ii. Heat at 100° C. for 2 hours until vapors change from red to white color. • iii. The resultant solution filtered through Whatman paper and makeup to 100 ml with 1% nitric acid.

| Compound | Total Protein content (paddy grain [1]) [ppm] | Phenol Content (paddy grain [2]) [ppm] | B (Boron) (paddy grain [3]) [ppm] | Ca (Calcium) (paddy grain [3]) [ppm] | Co (Cobalt) (paddy grain [3]) [ppm] | Cu (Copper) (paddy grain [3]) [ppm] | Fe (Iron) (paddy grain [3]) [ppm] | Mg (Magnesium) (paddy grain [3]) [ppm] | Mn (Manganese) (paddy grain [3]) [ppm] | Zn (Zinc) (paddy grain [3]) [ppm] |
| --- | --- | --- | --- | --- | --- | --- | --- | --- | --- | --- |
| O=CO.O=C[O-].[K+] [Potassium diformate] | 0.084 | 17.96 | 35.9 | 399.0 | 14.2 | 35.0 | 397.0 | 678.0 | 50.4 | 66.6 |
| O=C[O-].[K+] [Potassium formate] | 0.086 | 16.69 | 38.4 | 401.7 | 14.2 | 37.0 | 401.0 | 646.0 | 46.5 | 50.6 |
